Reference: US12129493B2, “Host cells and methods useful for producing unnatural terpenoids using a novel artificial metalloenzyme” (The Regents of the University of California, priority 2020, dated 2024)
Residue numbers refer to the chain shown, from its start. Names and notes keep the numbering of the source. Values joined by “and” are separate entries in the source; they are usually repeats but may differ in a detail not shown here. Equal entries are not always repeated. “Also recorded” adds a separate entry of the source. Where two headings read alike, the source gives them in different places.

Legend:
[1] = tested on: E. coli cells expressing the artificial biosynthetic pathway (pJBEI6410+pJHA170); assay: Cell viability test with CFU (colony forming units) assay; format: cell-based; settings: high concentration, 4 h exposure
Description: 9. Cell viability test with CFU (colony forming units) assay. E. coli cells co-transformed with pJBEI6410 and pJHA170 were grown as described in 7, except for the following steps. […] A portion of cell culture (1.4 mL) was transferred into Falcon 14 mL round-bottom tube. […] For the control group, only sterile ddH2O (1%, v/v) was added. The cultures were further incubated at 30° C., 200 rpm for 4 h. Then the cultures were diluted 10^5 times. Aliquots of diluted cell suspension (50 μL) were plated onto LB agar plates. The plates were incubated at 30° C. for 24 h. The colonies grown on the plates were manually counted and the percentage of viable cells in each group was calculated by normalizing the number of colonies grown in the control group as 100%.

[2] = molecular target: T1, Sulfolobus CYP119 (cytochrome P450 119, parent sequence SEQ ID NO: 1), apo form, CYP119-141 mutant (C317G, T213G, V254L, L155W) (Sulfolobus acidocaldarius, UniProt Q55080, C317G/L155W/T213G/V254L); assay: Binding affinity of apo-CYP119 towards Ir(Me)MPIX/hemin (intrinsic fluorescence quenching, Benesi-Hildebrand); design: species or system Sulfolobus solfataricus; settings: excitation 294 nm, 10 mM TRIS buffer pH 8.0, Benesi-Hildebrand analysis
T1 construct: made in house
Description: Intrinsic fluorescence quenching;^8 Modified from a reported procedure, aliquots (10 μL) of metalloporphyrin stock solutions (in DMSO) were added to a solution containing 0.15 mg/L apo-CYP119 (CYP119-141 mutant, 800 μL, 10 mM TRIS buffer, pH 8.0). This addition caused the concentration of the protein to decrease from its initial value to a final concentration of 0.148 mg/L in the process. After each addition, the emission spectrum of CYP119 was recorded upon excitation at 294 nm. In quenching experiments, the concentration of the chromophore (CYP119 or porphyrin) was kept sufficiently low (<0.15) to ensure uniform light absorption throughout the sample and reduced inner filter effects. The fluorescence emission intensity was calculated as the integral of the emission spectrum in the recorded wavelength range (305-450 nm).

[3] = molecular target: apo-ascorbate peroxidase; settings: from literature (ref. 9); cited from earlier work
[4] = molecular target: apo-myoglobin; settings: from literature (ref. 9); cited from earlier work
[5] = molecular target: apo-ascorbate peroxidase; settings: literature; cited from earlier work
[6] = molecular target: apo-myoglobin; settings: literature; cited from earlier work
[7] = tested on: BL21(DE3) cells; assay: Cytotoxicity of Ir(Me)MPIX and cyclopropyl limonene, cell growth by OD600; settings: for inhibition of cell growth: concentration range relevant for the study
Description: 10. […] Individual colonies from freshly transformed plates (incubated at 30° C.) were inoculated into 2 mL M9-rich media supplemented with appropriate antibiotics. A 1:100 dilution of overnight cultures into 300 μL M9-rich media was performed in a 48-well plate. […] The OD600 values were recorded by a plate reader (F200 or F200pro, Tecan) set at 30° C.
Cyclopropyl limonene; BL21(DE3) cells co-transformed with pHug21 (coding for HUG system) and pJHA110 (coding for CYP119 mutant) were grown and cultivated as described above. The stock solution of cyclopropyl limonene in ethanol was added to the cell culture to give final concentration of 0, 0.2, 1, 5, 25 mg/L cyclopropyl limonene and 1% (v/v) ethanol. The OD600 values were recorded by a plate reader (F200 or F200pro, Tecan) set at 30° C.

[8] = tested on: E. coli cells expressing limonene biosynthetic pathway; assay: Effect of Ir(Me)MPIX addition on limonene titer; format: cell-based; settings: 0.1 μM Ir(Me)MPIX in DMSO
Description: 6. Limonene biosynthesis. Chemically competent BL21(DE3) (NEB) cells were transformed with a plasmid coding for MEV pathway enzymes to produce limonene from glucose in E. coli (pJBEI6410 or pJBEI6409). […] The cultures were grown overnight at 30° C. and 200 rpm for 18 h. In a 50 mL glass culture tube, 10 mL of M9-rich media was inoculated with 100 μL of overnight starter culture and incubated at 37° C. and 200 rpm to an OD600 of ˜1. Unless otherwise indicated, the cultures were then induced by adding 50 μM IPTG (final concentration), and 10% (v/v) dodecane was added to trap the limonene produced. Upon induction, the temperature was reduced to 30° C. and expressions were allowed to continue for 24 h at 200 rpm. An aliquot of the 100 μL dodecane overlay was diluted with 900 μL ethyl acetate containing 40 mg/L beta-pinene (beta-pinene as internal standard) and analyzed by GC-MS.

[9] = tested on: E. coli BL21(DE3) cells; assay: Evaluation of the effect of Ir(Me)MPIX and cyclopropyl limonene on cell growth (OD600); format: cell-based, Escherichia coli; settings: 30° C.
[10] = format: cell-based, E. coli; settings: whole cells harboring Ir-CYP119 mutants, average of three biological repeats
[11] = Cyclopropanation of (−)-limonene by Ir-CYP119 reconstituted in vitro or free cofactor; format: biochemical; settings: Ir-CYP119 mutants reconstituted in vitro, average of two replicates
Description: 12. […] The buffer of the protein solution was subsequently exchanged to TRIS buffer (20 mM, pH 7.5) using a NAP-10 column (GE Healthcare). […] To the reaction vial, 10 μL of 0.125 M stock solution of limonene in EtOH was added. The reaction vial was sealed with a cap containing a septum. The syringes of a multichannel syringe pump were loaded with a stock solution of EDA in DMSO (20 μL of 0.25 M solution of EDA in DMSO), and the EDA solution was added to the reaction over 1.5 h. The reaction was quenched upon the conclusion of the addition of EDA by adding 100 μL of 2 N HCl and extracted with 1 mL dodecane stock solution (0.1% (v/v) in ethyl acetate). The organic layer was then transferred to a separate vial for GC analysis.

[12] = molecular target: T2, CYP119 (Sulfolobus acidocaldarius, UniProt Q55080, C317G/L155W/T213G/V254L); assay: ICP-MS measurement of CYP119 purified from E. coli co-expressing heme transport system (100 mL culture); format: cell-based; settings: 0.1 μM Ir(Me)MPIX, single replicates
T2 construct: made in house; host or cells: E. coli BL21(DE3), co-transformed with pHug21 (HUG) or pBbS5a (RFP control)
Description: (§1) (b) Protein purification (100 mL culture); A plasmid containing CYP119 mutant (pJHA110) was co-transformed with a plasmid (pHug21) encoding the heme transport system HUG, or an empty vector backbone (pBbS5a) into chemically competent BL21(DE3) (NEB) cells. Individual colonies from freshly transformed plates were inoculated into 4 mL M9-rich media supplemented with 100 μg/mL carbenicillin and 25 μg/mL kanamycin. The cultures were grown overnight at 37° C. and 200 rpm. In a 500 mL Erlenmeyer flask, 100 mL of M9-rich media was inoculated with 1 mL of overnight starter culture and incubated at 37° C. and 200 rpm to an OD600 of 0.7˜0.8. […] Upon induction, the incubation temperature was reduced to 30° C., and expressions were allowed to continue for 18 h at 200 rpm. Cells were harvested by centrifugation and stored at −20° C. until purification.
(§2) Cell debris was removed by centrifugation (10000 rpm, 45 min, 4° C.). The supernatants were incubated with Ni-NTA agarose (50% suspension, 4 mL) on a tube rotator (15 min, 4° C., 20 rpm) and poured into glass frits (coarse, 50 mL). The resin was washed (3×35 mL) with Ni-NTA lysis buffer (50 mM NaPi, 250 mM NaCl, 10 mM Imidazole, pH 8.0). The desired protein was eluded with 15 mL Ni-NTA elusion buffer (50 mM NaPi, 250 mM NaCl, 250 mM Imidazole, pH 8.0) and concentrated to 1 mL with a 30 kDa molecular weight cut-off Amicon centrifugal filtration device (EMD Millipore).
(§3) (c) ICP-MS analysis; Cone. HNO3 was added to each sample (1 mL) in to make a final concentration of 4% (v/v). After microwave digestion (140° C., 30 min), the samples were analyzed by ICP-MS (Elemental Analysis Core, Oregon Health & Science University).

[13] = molecular target: T2, CYP119; assay: Fe and Ir content of CYP119 purified from HUG/CYP119 E. coli (700 mL culture); format: cell-based; settings: 0.2 mg/L Ir(Me)MPIX
Description: as §1, with “(b) Protein purification (100 mL culture); A plasmid containing CYP119 mutant (pJHA110) was co-transformed with a plasmid (pHug21) encoding the heme transport system HUG, or an empty vector backbone (pBbS5a) into chemically competent BL21(DE3) (NEB) cells.” left out
as §2, §3

[14] = 0, 0.1, 1, 10 μM Ir(Me)MPIX, M9-rich media

T1 sequence (Q55080 whole entry L155W/T213G/V254L/C317G): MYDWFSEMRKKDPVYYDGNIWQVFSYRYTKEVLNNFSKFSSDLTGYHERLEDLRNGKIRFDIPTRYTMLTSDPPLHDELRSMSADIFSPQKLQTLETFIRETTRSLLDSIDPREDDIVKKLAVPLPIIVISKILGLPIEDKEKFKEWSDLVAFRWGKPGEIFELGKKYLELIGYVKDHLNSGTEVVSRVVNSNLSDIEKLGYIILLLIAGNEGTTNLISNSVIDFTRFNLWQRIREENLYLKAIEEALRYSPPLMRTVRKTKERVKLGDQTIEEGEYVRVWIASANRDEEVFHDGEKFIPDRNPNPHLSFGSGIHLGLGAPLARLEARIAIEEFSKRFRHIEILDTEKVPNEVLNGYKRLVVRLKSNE
T2 sequence (Q55080 whole entry L155W/T213G/V254L/C317G): as above

## CCOC(=O)C=[N+]=[N-] [EDA, ethyl diazoacetate]
[1]
  toxicity to E. coli cells (viable cells): toxic

## C=CC1=C(C)c2cc3[nH]c(cc4nc(cc5[nH]c(cc1n2)c(C)c5CCC(=O)O)C(CCC(=O)O)=C4C)c(C)c3C=C.[Fe+3] [Fe(Cl)PPIX, reference compound]
[2]
  Kb: 6.7(0.7) × 10^5 M^−1
  Kd: 1500 nM
[3]
  Kd: 190 nM
[4]
  Kd: 600 nM

## C=CC1=C(C)c2cc3[n-]c(cc4[n-]c(cc5nc(cc1n2)C(C)=C5C=C)c(C)c4CCC(=O)O)c(CCC(=O)O)c3C.[Cl-].[Fe+3] [Fe(Cl)PPIX]
[5]
  Kd: 190 nM
[6]
  Kd: 600 nM

## CCC1=C(C)c2cc3[n-]c(cc4[n-]c(cc5nc(cc1n2)C(C)=C5CC)c(C)c4CCC(=O)O)c(CCC(=O)O)c3C.[CH3-].[Ir+3] [Ir(Me)MPIX]
[7]; BL21(DE3) expressing the HUG system, 0-10 μM
  effect on cell growth: little effect
[7]; BL21(DE3) with empty vector pBbS5K, 0-10 μM
  effect on cell growth: little effect
[7]
  inhibition of cell growth: did not inhibit cell growth
[8]
  effect on limonene titer: unaffected; also recorded: little impact
[2]
  Kb: 4.2(0.3) × 10^5 M^−1
[2]; read-out: Kd
  Kd: 2400 nM
[9]; [14]
  effect on growth of BL21(DE3) cells expressing the HUG system: little effect on the growth
  effect on growth of BL21(DE3) cells transformed with an empty vector pBbS5K: little effect on the growth

## CCOC(=O)[C@H]1C[C@@]1(C)[C@@H]1CC=C(C)CC1 [cyclopropyl limonene]
[7]; BL21(DE3) with pHug21 and pJHA110, 0-25 mg/L
  effect on cell growth: little effect
[7]
  inhibition of cell growth: did not inhibit cell growth
[9]; 0, 0.2, 1, 5, 25 mg/L cyclopropyl limonene, 1% (v/v) ethanol
  effect on growth of BL21(DE3) cells co-transformed with pHug21 and pJHA110 (encoding CYP119): little effect on the growth

B1: P/256W: CYP119 mutant (C317G, T213G, V254L, L155W, R256W) (protein, UniProt Q55080 1-368, looked up, variant C317G T213G V254L L155W R256W)
Cytochrome P450 119: MYDWFSEMRKKDPVYYDGNIWQVFSYRYTKEVLNNFSKFSSDLTGYHERLEDLRNGKIRFDIPTRYTMLTSDPPLHDELRSMSADIFSPQKLQTLETFIRETTRSLLDSIDPREDDIVKKLAVPLPIIVISKILGLPIEDKEKFKEWSDLVAFRWGKPGEIFELGKKYLELIGYVKDHLNSGTEVVSRVVNSNLSDIEKLGYIILLLIAGNEGTTNLISNSVIDFTRFNLWQRIREENLYLKAIEEALRYSPPLMWTVRKTKERVKLGDQTIEEGEYVRVWIASANRDEEVFHDGEKFIPDRNPNPHLSFGSGIHLGLGAPLARLEARIAIEEFSKRFRHIEILDTEKVPNEVLNGYKRLVVRLKSNE
[10]
  in vivo diastereoselectivity (P2/Ptotal): 63%
[11]
  in vitro diastereoselectivity (P2/Ptotal): 48%

B2: ChuA/Ton/CYP119: CYP119 purified from E. coli transformed with pJHA184 (ChuA and Ton complex) and pJHA110 (protein, UniProt Q55080 1-368, looked up)
Cytochrome P450 119: B1 Cytochrome P450 119 with W155L, G213T, L254V, W256R, G317C
[12]
  Ir, total amount present in the purified protein: 0.83 nmol and 0.69 nmol and 0.87 nmol

B3: HUG/CYP119: CYP119 purified from E. coli transformed with pHug21 (HUG system) and pJHA110 (protein, UniProt Q55080 1-368, looked up)
Cytochrome P450 119: B1 Cytochrome P450 119 with W155L, G213T, L254V, W256R, G317C
[12]
  Ir, total amount present in the purified protein: 3.15 nmol and 3.66 nmol and 3.08 nmol
[13]
  Fe, total amount present in the purified protein: 0.044 µmol and 0.031 µmol and 0.035 µmol
  Fe:CYP119 (molar ratio): 12.4% and 8.5% and 9.1%
  Ir, total amount present in the purified protein: 0.039 µmol and 0.040 µmol and 0.041 µmol
  Ir:CYP119 (molar ratio): 11.0% and 11.1% and 10.8%

B4: RFP/CYP119: CYP119 purified from E. coli transformed with pBbS5a (RFP control) and pJHA110 (protein, UniProt Q55080 1-368, looked up)
Cytochrome P450 119: B1 Cytochrome P450 119 with W155L, G213T, L254V, W256R, G317C
[12]
  Ir, total amount present in the purified protein: 0.66 nmol and 0.59 nmol and 0.62 nmol

B5: P (C317G, T213G, V254L, L155W): parent CYP119 mutant (C317G, T213G, V254L, L155W) (protein)
chain: B1 Cytochrome P450 119 with W256R
[10]
  in vivo diastereoselectivity (P2/Ptotal): 53%
[11]
  in vitro diastereoselectivity (P2/Ptotal): 20%
